According to ChEMBL document CHEMBL3046390, “Multifunctionalised benzoxazinones in the systems Oryza sativa-Echinochloa crus-galli and Triticum aestivum-Avena fatua as natural-product-based herbicide leads” (Pest Manag Sci, 2010):
Active and inactive are the calls of the source. The calls are words filed in the database; no cut-off is given here.

Assays:
Avena fatua [1] = test: Herbicidal activity against Avena fatua assessed as inhibition of shoot length at 0.05 uM to 1 mM after 5 days relative to control; format: functional, organism-based
Echinochloa crus-galli [2] = test: Herbicidal activity against Echinochloa crus-galli (barnyard grass) assessed as inhibition of shoot length at 0.05 uM to 1 mM after 5 days relative to control; format: functional, organism-based
Echinochloa crus-galli [3] = test: Herbicidal activity against Echinochloa crus-galli (barnyard grass) assessed as inhibition of root length after 5 days relative to control; format: functional, organism-based; settings: 120 h
Oryza sativa [4] = test: Phytotoxicity against Oryza sativa (rice) assessed as inhibition of seed germination at 10 uM to 1 mM after 7 days relative to control; format: organism-based; settings: in vivo, 168 h
Triticum aestivum [5] = test: Phytotoxicity against Triticum aestivum (wheat) assessed as inhibition of root elongation after 5 days relative to control; format: organism-based; settings: 120 h
Oryza sativa [6] = test: Phytotoxicity against Oryza sativa (rice) assessed as inhibition of root elongation after 7 days relative to control; format: organism-based; settings: 168 h
Echinochloa crus-galli [7] = test: Herbicidal activity against Echinochloa crus-galli (barnyard grass) assessed as inhibition of seed germination at 0.05 uM to 1 mM after 5 days relative to control; format: functional, organism-based
Avena fatua [8] = test: Herbicidal activity against Avena fatua assessed as inhibition of seed germination at 0.05 uM to 1 mM after 5 days relative to control; format: functional, organism-based
Triticum aestivum [9] = test: Phytotoxicity against Triticum aestivum (wheat) assessed as inhibition of seed germination at 10 uM to 1 mM after 5 days relative to control; format: organism-based; settings: in vivo, 120 h
Avena fatua [10] = test: Herbicidal activity against Avena fatua assessed as inhibition of root length after 5 days relative to control; format: functional, organism-based; settings: 120 h
[11] = Selectivity idex, ratio of IC50 for root elongation in Triticum aestivum to IC50 for root elongation in Avena fatua
[12] = Selectivity idex, ratio of IC50 for root elongation in Oryza sativa to IC50 for root elongation in Echinochloa crus-galli
Echinochloa crus-galli [13] = test: Herbicidal activity against Echinochloa crus-galli (barnyard grass) assessed as inhibition of root elongation at 52 uM after 5 days relative to control; format: functional; settings: 120 h
[14] = Phytotoxicity against Oryza sativa (rice) assessed as inhibition of root elongation at 52 uM after 7 days relative to control; format: organism-based; settings: in vivo
Avena fatua [15] = test: Herbicidal activity against Avena fatua assessed as inhibition of root elongation at 6 uM after 5 days relative to control; format: functional; settings: 120 h
Echinochloa crus-galli [16] = test: Ratio of Contanil IC50 to compound IC50 for root elongation in Echinochloa crus-galli (barnyard grass); format: functional
[17] = Phytotoxicity against Triticum aestivum (wheat) assessed as inhibition of root elongation at 6 uM after 5 days relative to control; format: organism-based; settings: in vivo
[18] = Phytotoxicity against Triticum aestivum (wheat) assessed as inhibition of root elongation at 114 uM after 5 days relative to control; format: organism-based; settings: in vivo
Avena fatua [19] = test: Herbicidal activity against Avena fatua assessed as inhibition of root elongation at 114 uM after 5 days relative to control; format: functional; settings: 120 h

SMILES | inhibition (Avena fatua [1]) | inhibition (Echinochloa crus-galli [2]) | IC50 (Echinochloa crus-galli [3]) | Activity (Oryza sativa [4]) | IC50 (Triticum aestivum [5]) | IC50 (Oryza sativa [6]) | inhibition (Echinochloa crus-galli [7]) | inhibition (Avena fatua [8]) | Activity (Triticum aestivum [9]) | IC50 (Avena fatua [10]) | Ratio IC50 [11] | Ratio IC50 [12] | inhibition at 52 µM (Echinochloa crus-galli [13]) | inhibition at 168 h, 52 µM [14] | inhibition at 6 µM (Avena fatua [15]) | Ratio IC50 (Echinochloa crus-galli [16]) | inhibition at 120 h, 6 µM [17] | inhibition at 120 h, 114 µM [18] | inhibition at 114 µM (Avena fatua [19])
CCCC1Oc2ccc(F)cc2N(O)C1=O (stereo unspecified) | Active | Active | 183 µM | Non-toxic | 766 µM | 337 µM | Active | Active | Non-toxic | 160 µM | 4.78 | 1.85 |  |  |  |  |  |  | 
CCC(=O)ON1C(=O)COc2c(Cl)cccc21 [8-Cl-4-Pr-D-DIBOA] | Active | Active | 52 µM | Non-toxic | 1300 µM | 859 µM | Active | Active | Non-toxic | 321 µM | 4.06 | 16.6 | 70% | 8% |  |  |  |  | 
CCC(=O)ON1C(=O)COc2ccc(Cl)cc21 | Active | Active | 14 µM | Non-toxic | 46.6 µM | 3 µM | Active | Active | Non-toxic | 19.3 µM | 2.42 | 0.2 |  |  |  |  |  |  | 
CCC1Oc2ccc(Cl)cc2N(O)C1=O [6-Cl-2-Et-D-DIBOA] | Active | Active | 840 µM | Non-toxic | 130 µM | 56 µM | Active | Active | Non-toxic | 466 µM | 0.28 | 0.07 |  |  |  |  |  |  | 
CCCCC(=O)ON1C(=O)COc2ccc(Cl)cc21 [6-Cl-4-Val-D-DIBOA] | Active | Active | 14 µM | Non-toxic | 26.6 µM | 2 µM | Active | Active | Non-toxic | 3.54 µM | 7.52 | 0.16 |  |  |  |  |  |  | 
CCC(=O)ON1C(=O)COc2ccc(F)cc21 [6F-4Pr-D-DIBOA] | Active | Active | 9 µM | Non-toxic | 81.9 µM | 3 µM | Active | Active | Non-toxic | 6.22 µM | 13.2 | 0.36 |  |  | 70% | 12 | 25% |  | 
CCCC1Oc2ccc(Cl)cc2N(O)C1=O [6-Cl-2-Pr-D-DIBOA] | Active | Active | 131 µM | Non-toxic | 470 µM | 156 µM | Active | Active | Non-toxic | 123 µM | 3.82 | 1.19 |  |  |  |  |  |  | 
O=C1C(c2ccccc2)Oc2ccc(F)cc2N1O [6-F-2-Ph-D-DIBOA] | Active | Active | 211 µM | Non-toxic | 641 µM | 1240 µM | Active | Active | Non-toxic | 176 µM | 3.65 | 5.86 |  |  |  |  |  |  | 
CCC(=O)Nc1ccc(Cl)c(Cl)c1 [PROPANIL] |  |  |  | Non-toxic |  |  |  |  | Non-toxic |  |  | 1.87 |  |  |  |  |  |  | 
CCCCC(=O)ON1C(=O)COc2ccc(F)cc21 [6-F-4-Val-D-DIBOA] | Active | Active | 8 µM | Non-toxic | 58.2 µM | 6 µM | Active | Active | Non-toxic | 6.53 µM | 8.92 | 0.78 |  |  |  | 12 |  |  | 
CCC1Oc2c(Cl)cccc2N(O)C1=O [8-Cl-2-Et-D-DIBOA] | Active | Active | 145 µM | Non-toxic | 345 µM | 305 µM | Active | Active | Non-toxic | 154 µM | 2.25 | 2.11 |  |  |  |  |  |  | 
O=C1C(c2ccccc2)Oc2ccc(Cl)cc2N1O [6-Cl-2-Ph-D-DIBOA] | Active | Active | 94 µM | Non-toxic | 690 µM | 992 µM | Active | Active | Non-toxic | 197 µM | 3.51 | 10.5 |  |  |  |  |  |  | 
CCC1Oc2ccc(F)cc2N(O)C1=O [6-F-2-Et-D-DIBOA] | Active | Active | 25 µM | Non-toxic | 63.1 µM | 15 µM | Active | Active | Non-toxic | 24.4 µM | 2.59 | 0.58 |  |  |  |  |  |  | 
CCCCC(=O)ON1C(=O)COc2c(Cl)cccc21 | Active | Active | 64 µM | Non-toxic | 1640 µM | 712 µM | Active | Active | Non-toxic | 114 µM | 14.4 | 11.1 |  |  |  |  |  | 18% | 70%
CCCC1Oc2c(Cl)cccc2N(O)C1=O [8-Cl-2-Pr-D-DIBOA] | Active | Active | 83 µM | Non-toxic | 393 µM | 614 µM | Active | Active | Non-toxic | 73.2 µM | 5.37 | 7.44 |  |  |  |  |  |  | 
O=C1C(c2ccccc2)Oc2c(Cl)cccc2N1O [8-Cl-2-Ph-D-DIBOA] | Active | Active | 109 µM | Non-toxic | 263 µM | 384 µM | Active | Active | Non-toxic | 150 µM | 1.75 | 3.51 |  |  |  |  |  |  | 
